Measured values reported in patent publication US20180030093A1, “SELF-ASSEMBLING ULTRASHORT ALIPHATIC CYCLIC PEPTIDES FOR BIOMEDICAL APPLICATIONS” (Agency for Science, Technology and Research, priority 2015, published 2018).
Entries after “also recorded” stand apart in the source; their conditions may differ. Blank lines part the entries; values can stand above or below the compound they belong to. Non-standard residues stand in square brackets, D forms with d. Residues, ends and D or L forms follow the SMILES beside them.

Columns and labels:
[1] = Stimuli response of gelation to salt (1× PBS); assay type: physicochemical; settings: 5 mg/mL in 1× PBS, after vortexing
Description: Our previous studies on the parent peptide Ac-LIVAGK-NH2 have shown stimuli responsive behaviour to salt, which allows to reduce the minimum gelation concentration by 50%. […] For this purpose, cLK6 was dissolved in 9 parts of water and afterwards 1 part of 10× PBS solution was added.

[2] = Gelation / self-assembly in water; assay type: physicochemical
Description: (§1) In order to determine the minimum gelation concentration in water, the cyclic peptides were attempted to be dissolved in MilliQ water.
(§2) In order to introduce a charged amino acid residue cLK6 was synthesized and its ability to form hydrogels was investigated. For this purpose cLK6 was dissolved at a concentration of 10 mg/mL in water.

[3] = Solubility of the cyclic peptides in MilliQ water
Description: as §1, §2

[4] = stimuli responsive behaviour to salt; applicant's previous studies; cited from earlier work

gel formation ([2]; 5 mg/mL in water, prepared in the same way, overnight): clear hydrogel was formed | gel formation ([2]; 10 mg/mL in water, heated at 60° C., then standing at room temperature): opaque sol gel was formed | gel formation ([2]; peptide concentration further reduced below 5 mg/mL in water): no hydrogel formation
Compound: CC[C@H](C)[C@@H]1NC(=O)[C@@H](CC(C)C)NC(=O)[C@H](CCCCN)NC(=O)CNC(=O)[C@H](C)NC(=O)[C@@H](C(C)C)NC1=O [cLK6, cLIVAGK] (cyclo([dL]I[dV]AGK))
gel formation in salt solution [1]: only peptide aggregation, resulting in precipitation | solubility in water at 10 mg/mL ([3]; 10 mg/mL in water): full solubility was only achieved, when the peptide solution was heated at 60 °C for about 2 h

Compound: CC[C@H](C)[C@@H]1NC(=O)[C@@H](CC(C)C)NC(=O)[C@H](CO)NC(=O)CNC(=O)[C@H](C)NC(=O)[C@@H](C(C)C)NC1=O [cLS6, cLIVAGS] (cyclo([dL]I[dV]AGS))
self-assembly in water ([2]; dissolved in hexafluoroisopropanol (HFIP) and dropped slowly into water): gelatinous “precipitate” is formed; also recorded: still displays self-assembling properties | solubility in water ([3]; MilliQ water): low solubility; also recorded: limited water solubility

Compound: Ac-LIVAGK-NH2 [linear parent ultrashort peptide of cLK6, previously reported by the inventors]
reduction of the minimum gelation concentration by salt [4]: 50%
